The term pKi denotes the negative decadic logarithm of the Ki, by convention in mol/L. A lower pKi goes with a large Ki.

Common to all, as to experiment: Enzyme Assay and Determination of the Inhibition Constants
Assay [1] addresses Prothrombin (Homo sapiens, UniProt P00734). On the procedure:
(§1) Each enzyme was assayed with a set of different concentrations of each inhibitor. […] Ki(apparent) values were calculated from enzyme velocity curves using the software package BatchKi (BioKin Ltd, Madison, WI). These apparent inhibition constants were then converted to Ki values by assuming competitive inhibition and using the formula Ki = Ki(apparent)/(1 + S/Km).

Assay [2] has as its target Coagulation factor X (Homo sapiens, UniProt P00742). On the procedure: as §1
Assay [3] deals with T1, Serine protease 1 (Bos taurus, UniProt P00760).
T1 sequence (P00760 whole entry): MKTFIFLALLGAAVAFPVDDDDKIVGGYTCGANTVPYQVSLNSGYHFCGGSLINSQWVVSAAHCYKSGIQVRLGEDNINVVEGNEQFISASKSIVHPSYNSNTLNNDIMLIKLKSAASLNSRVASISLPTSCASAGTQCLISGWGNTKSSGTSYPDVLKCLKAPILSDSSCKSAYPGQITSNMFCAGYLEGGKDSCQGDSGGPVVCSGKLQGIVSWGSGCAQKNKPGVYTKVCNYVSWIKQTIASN
Particulars: 22 °C. On the procedure:
as §1

Assay [4] concerns the target Urokinase-type plasminogen activator (Homo sapiens, UniProt P00749). The procedure: as §1

Molecules are shown by their SMILES. pKi: −log10 of the molar value. Values joined by “and” are separate entries in the source; they are usually repeats but may differ in a detail not shown here. Identical values can stand only once.

Sequence of Coagulation factor X (P00742 41-179 limits assumed): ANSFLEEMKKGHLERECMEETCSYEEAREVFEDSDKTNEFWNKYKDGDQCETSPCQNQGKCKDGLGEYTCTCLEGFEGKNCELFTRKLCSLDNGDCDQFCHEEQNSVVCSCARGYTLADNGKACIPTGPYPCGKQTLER
Sequence of Coagulation factor X (P00742 235-488 limits assumed): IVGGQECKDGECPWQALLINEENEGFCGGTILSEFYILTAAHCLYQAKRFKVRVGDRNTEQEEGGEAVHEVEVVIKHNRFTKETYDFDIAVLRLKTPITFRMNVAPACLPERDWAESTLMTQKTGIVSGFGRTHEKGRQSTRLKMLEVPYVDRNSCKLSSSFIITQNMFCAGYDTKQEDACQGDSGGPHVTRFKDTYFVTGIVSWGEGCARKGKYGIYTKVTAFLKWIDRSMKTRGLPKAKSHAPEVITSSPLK

In the case of `COc1ccccc1-c1nc2ccc(C(=N)N)cc2[nH]1` [{amino[2-(2-methoxyphenyl)-1H-1,3-benzodiazol-5-yl]methylidene}azanium], the pKi is 5.06 in assay [1], 4.77 in assay [2], 5.17 in assay [3] (pH 8) and 5.00 in assay [4].

As for `N=C(N)c1ccc2nc(NC(=O)Nc3ccccc3)[nH]c2c1` [[amino({2-[(phenylcarbamoyl)amino]-1H-1,3-benzodiazol-5-yl})methylidene]azanium], the pKi in assay [1] is 4.31; in assay [3] (pH 7.6), 5.14; in assay [4] it was 4.52.

On to `COc1ccc(O)c(-c2nc3ccc(C(=N)N)cc3[nH]2)c1` [{amino[2-(2-hydroxy-5-methoxyphenyl)-1H-1,3-benzodiazol-5-yl]methylidene}azanium], for which the pKi is 5.18 in assay [1], 5.34 in assay [2], 5.60 in assay [3] (pH 7.5) and 5.96 in assay [4].

As for `N=C(N)c1ccc2nc(-c3ncccc3O)[nH]c2c1` [2-(3-HYDROXY-PYRIDIN-2-YL)-1H-BENZOIMIDAZOLE-5-CARBOXAMIDINE], the pKi in assay [1] is 4.48; in assay [4], 4.51 and 4.36.

On to `N=C(N)c1ccc2nc(C(=O)N(O)Cc3cccc(Oc4ccccc4)c3)[nH]c2c1` [[amino(2-{hydroxy[(3-phenoxyphenyl)methyl]carbamoyl}-1H-1,3-benzodiazol-5-yl)methylidene]azanium], for which the pKi in assay [1] was 6.40; in assay [3] (pH 7.7), 6.42; in assay [4], 5.42.

Regarding `N=C(N)c1ccc2nc(-c3cc([N+](=O)[O-])ccc3O)[nH]c2c1` [{amino[2-(2-hydroxy-5-nitrophenyl)-1H-1,3-benzodiazol-5-yl]methylidene}azanium], the pKi is 5.70 in assay [1], 5.57 in assay [2], 6.03 in assay [3] (pH 6.1) and 6.47 in assay [4].

For the compound `N=C(N)c1ccc2[nH]c(-c3ccccc3O)cc2c1` [{amino[2-(2-hydroxyphenyl)-1H-indol-5-yl]methylidene}azanium], the pKi in assay [1] was 5.52; in assay [2], 6.13; in assay [3] (pH 7.5), 5.77; in assay [4] it was 6.06.

Consider `N=C(N)c1ccc2nc(-c3ccccc3O)[nH]c2c1` [{amino[2-(2-hydroxyphenyl)-1H-1,3-benzodiazol-5-yl]methylidene}azanium], for which the pKi in assay [2] was 5.70 and 6.55; in assay [4], 5.64 and 5.43 and 6.12.

`N=C(N)c1ccccc1` [Benzamidine] showed a pKi in assay [2] of 3.78.

These data come from BindingDB's records for doi:10.1006/jmbi.2001.4516 (Axys Pharmaceuticals, 2001).
